From patent US11814367B2, “Inhibitors of glycogen synthase 1 (GYS1) and methods of use thereof” (Maze Therapeutics, Inc., priority 2021, dated 2023)

Molecular target: hGYS1 enzyme (recombinant hGYS1/GN1 protein) (Homo sapiens (Human), UniProt P13807)
Assay: GYS1 coupled enzyme assay (PK/LDH)
Format: biochemical
Details: hGYS1/GN1 50 nM, UDP-Glucose 0.8 mM, G6P 1 mM; geometric mean of at least 2 runs
From the text: The GYS1 coupled enzyme assay is a kinetic biochemical assay that indirectly quantifies the rate of glycogen synthesis by coupling the conversion of GYS1 substrate UDP-glucose into UDP with downstream enzymatic reactions. UDP is released from UDP-glucose as glucose monomers are linked into the growing glycogen strand by GYS1. The coupled assay then proceeds with pyruvate kinase utilizing UDP and phospho(enol)pyruvate (PEP) to form pyruvate. Lactate dehydrogenase then converts pyruvate and NADH into lactate and NAD+. Oxidation of NADH to NAD+ can be measured continuously with a plate reader by quantifying the decrease in NADH absorbance at 340 nm over time.
Compounds that inhibit the hGYS1 enzyme and, subsequently, the downstream conversion of NADH to NAD+, were tested using assay ready plates (black, clear bottom 384 well plates) in a final DMSO reaction volume of 2.5% DMSO. The Assay Buffer contained 50 mM Tris pH 7.5, 2 mM MgCl2, and 100 mM KCl. Fresh stocks of BSA at a final concentration of 0.02% and TCEP at 1 mM were added before splitting buffer into hGYS1 buffer and substrate buffer. To the hGYS1 buffer, rabbit liver glycogen was added at a final concentration of 0.2% glycogen. Glucose-6-Phosphate was added at 1 mM, recombinant hGYS1/GN1 protein was added at 50 nM to the substrate buffer, phosphoenolpyruvate (PEP) was added at 2 mM, UDP-Glucose was added at 0.8 mM, NADH) was added at 0.6 mM, and Pyruvate Kinase/Lactate Dehydrogenase was added at 20 units/mL. The reaction was initiated by mixing hGYS1 buffer and substrate buffer at a 1:1 ratio. Both buffers were plated using a liquid dispensing device with hGYS1 buffer plated first followed by the substrate buffer. Plates were spun briefly to eliminate air bubbles and are immediately read in continuous mode at an absorbance of 340 nm, for 10 time points in one-minute increments, for a total of 10 minutes. The slope from these 10 time points was normalized to the positive and negative control wells. The duplicate % inhibition values are then averaged and fit to a Hill equation for dose response according to the Levenberg-Marquardt algorithm with the Hill equation maximum set to 100 and the minimum set to 0.
Unless otherwise specified, IC50 values are reported as the geometric mean of at least 2 assay runs on separate days. Each run represents the average of a technical replicate, where each compound was assayed twice in the same plate. […] A superscript “#” symbol in Table 2 indicates results from a single assay run.

Sequence of hGYS1 enzyme (recombinant hGYS1/GN1 protein) (P13807 whole entry): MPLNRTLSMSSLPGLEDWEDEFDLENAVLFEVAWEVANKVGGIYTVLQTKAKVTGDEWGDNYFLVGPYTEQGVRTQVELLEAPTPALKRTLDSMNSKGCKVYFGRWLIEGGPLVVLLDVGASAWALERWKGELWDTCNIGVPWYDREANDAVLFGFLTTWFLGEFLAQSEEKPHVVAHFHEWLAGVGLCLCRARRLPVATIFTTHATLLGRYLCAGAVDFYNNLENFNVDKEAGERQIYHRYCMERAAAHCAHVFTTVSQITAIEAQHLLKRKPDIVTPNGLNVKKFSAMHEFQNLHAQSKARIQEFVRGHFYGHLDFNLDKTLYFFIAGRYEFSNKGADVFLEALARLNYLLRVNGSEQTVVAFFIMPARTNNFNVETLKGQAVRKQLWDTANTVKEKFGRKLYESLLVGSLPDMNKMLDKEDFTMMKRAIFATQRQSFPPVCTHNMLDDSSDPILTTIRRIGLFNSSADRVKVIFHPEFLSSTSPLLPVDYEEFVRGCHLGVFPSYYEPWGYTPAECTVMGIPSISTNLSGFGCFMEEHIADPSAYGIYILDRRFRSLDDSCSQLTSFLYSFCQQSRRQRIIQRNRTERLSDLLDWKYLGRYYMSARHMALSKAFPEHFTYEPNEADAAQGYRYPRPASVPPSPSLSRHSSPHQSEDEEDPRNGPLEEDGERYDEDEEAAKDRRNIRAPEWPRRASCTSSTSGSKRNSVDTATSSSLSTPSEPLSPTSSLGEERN
Sequence of hGYS1 enzyme (recombinant hGYS1/GN1 protein) (P46976 whole entry partner): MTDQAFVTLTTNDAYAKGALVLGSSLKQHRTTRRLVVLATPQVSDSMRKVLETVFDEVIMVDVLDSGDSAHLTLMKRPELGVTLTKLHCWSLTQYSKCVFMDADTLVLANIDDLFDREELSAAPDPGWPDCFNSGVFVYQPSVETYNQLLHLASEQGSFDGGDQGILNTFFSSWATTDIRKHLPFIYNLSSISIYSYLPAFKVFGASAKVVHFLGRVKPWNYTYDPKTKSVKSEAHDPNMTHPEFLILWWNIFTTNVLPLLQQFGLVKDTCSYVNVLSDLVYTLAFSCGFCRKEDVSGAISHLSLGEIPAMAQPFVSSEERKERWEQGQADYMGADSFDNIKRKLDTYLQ

Compound	IC50
CC(=O)NCC(=O)N1CCC[C@H]1C(=O)NC(c1ccc(C2CC2)c(F)c1)c1ccn[nH]1 (single isomer, unassigned) [Compound 615, (2S)-N-[(R) or (S)-(4-cyclopropyl-3-fluorophenyl)(1H-pyrazol-5-yl)methyl]-1-(2-acetamidoacetyl) pyrrolidine-2-carboxamide]	1.58 µM
CC(C)c1ccc(C(NC(=O)[C@@H]2C[C@@H](F)CN2C(=O)Cc2cnn[nH]2)c2ccc(F)cn2)cc1F (single isomer, unassigned) [Compound 616, (2S,4R)-4-fluoro-N-[(R) or (S)-[3-fluoro-4-(propan-2-yl)phenyl](5-fluoropyridin-2-yl)methyl]-1-[2-(1H-1,2,3-triazol-5-yl)acetyl]pyrrolidine-2-carboxamide]	1.32 µM
CC(C)c1ccc(C(NC(=O)[C@@H]2C[C@@H](F)CN2C(=O)Cc2cnn[nH]2)c2cncc(F)c2)cc1F (single isomer, unassigned) [Compound 617, (2S,4R)-4-fluoro-N-[(R) or (S)-[3-fluoro-4-(propan-2-yl)phenyl](5-fluoropyridin-3-yl)methyl]-1-[2-(1H-1,2,3-triazol-5-yl)acetyl]pyrrolidine-2-carboxamide]	1.64 µM
CC(C)c1ccc(C(NC(=O)[C@@H]2C[C@@H](F)CN2C(=O)Cc2cnn[nH]2)c2ccnc(N)c2)cc1F (single isomer, unassigned) [Compound 618, (2S,4R)-N-[(S) or (R)-(2-aminopyridin-4-yl)[3-fluoro-4-(propan-2-yl)phenyl]methyl]-4-fluoro-1-[2-(1H-1,2,3-triazol-5-yl)acetyl]pyrrolidine-2-carboxamide]	1.52 µM
CC(C)c1ccc(C(NC(=O)[C@@H]2C[C@@H](F)CN2C(=O)Cc2cnn[nH]2)c2ccncc2F)cc1F (single isomer, unassigned) [Compound 619, (2S,4R)-4-fluoro-N-[(R) or (S)-[3-fluoro-4-(propan-2-yl)phenyl](3-fluoropyridin-4-yl)methyl]-1-[2-(1H-1,2,3-triazol-5-yl)acetyl]pyrrolidine-2-carboxamide]	1.16 µM
CC(C)c1ccc(C(NC(=O)[C@@H]2C[C@@H](F)CN2C(=O)Cc2cnn[nH]2)c2cccc(N)n2)cc1F (single isomer, unassigned) [Compound 621, (2S,4R)-N-[(R) or (S)-(6-aminopyridin-2-yl)[3-fluoro-4-(propan-2-yl)phenyl]methyl]-4-fluoro-1-[2-(1H-1,2,3-triazol-5-yl)acetyl]pyrrolidine-2-carboxamide]	0.555 µM
CC(=O)N1CCC[C@H]1C(=O)NC(c1ccc(C(C)C)cn1)c1ccccc1C (single isomer, unassigned) [Compound 641, (2S)-1-acetyl-N-[(S) or (R)-(2-methylphenyl)[5-(propan-2-yl)pyridin-2-yl]methyl]pyrrolidine-2-carboxamide]	2.95 µM
CC(=O)NCC(=O)N1CCC[C@H]1C(=O)NC(c1ccc(C2CC2)c(F)c1)c1cccc2[nH]c(=O)oc12 (single isomer, unassigned) [Compound 643, (2S)-N-[(R) or (S)-(4-cyclopropyl-3-fluorophenyl)(2-oxo-2,3-dihydro-1,3-benzoxazol-7-yl)methyl]-1-(2-acetamidoacetyl) pyrrolidine-2-carboxamide]	2.19 µM
O=C(NC(c1ccc(C2CC2)c(F)c1)c1cccc2[nH]c(=O)[nH]c12)[C@@H]1CCCN1C(=O)Cc1cnn[nH]1 (single isomer, unassigned) [Compound 648]	0.616 µM
CC(=O)N1C[C@H](F)C[C@H]1C(=O)N[C@@H](c1cccc(-c2nnc[nH]2)c1)c1ccc(C(C)C)c(F)n1 (single isomer, unassigned) [Compound 688, (2S,4R)—N—((S) or (R)-(3-(4H-1,2,4-triazol-3-yl)phenyl)(6-fluoro-5-isopropylpyridin-2-yl)methyl)-1-acetyl-4-fluoropyrrolidine-2-carboxamide]	0.106 µM
CC(=O)N1C[C@H](F)C[C@H]1C(=O)N[C@H](c1cccc(-c2nnc[nH]2)c1)c1ccc(C(C)C)c(F)n1 (single isomer, unassigned) [Compound 689, (2S,4R)—N—((R) or (S)-(3-(4H-1,2,4-triazol-3-yl)phenyl)(6-fluoro-5-isopropylpyridin-2-yl)methyl)-1-acetyl-4-fluoropyrrolidine-2-carboxamide]	> 10 µM
CC(=O)N1C[C@H](F)C[C@H]1C(=O)NC(c1cccc(-c2ccno2)c1)c1ccc(C(C)C)c(F)n1 (single isomer, unassigned) [Compound 698, (2S,4R)-1-acetyl-4-fluoro-N-[(S) or (R)-[6-fluoro-5-(propan-2-yl)pyridin-2-yl][3-(1,2-oxazol-5-yl)phenyl]methyl] pyrrolidine-2-carboxamide]	0.151 µM
CC(=O)N1C[C@H](F)C[C@H]1C(=O)NC(c1cccc(-n2cccn2)c1)c1ccc(C(C)C)c(F)n1 (single isomer, unassigned) [Compound 699, (2S,4R)-1-acetyl-4-fluoro-N-[(S) or (R)-[6-fluoro-5-(propan-2-yl)pyridin-2-yl][3-(1H-pyrazol-1-yl)phenyl]methyl] pyrrolidine-2-carboxamide]	0.051 µM
CC(=O)N1C[C@H](F)C[C@H]1C(=O)NC(c1cccc(-c2nnco2)c1)c1ccc(C(C)C)c(F)n1 (single isomer, unassigned) [Compound 700, (2S,4R)-1-acetyl-4-fluoro-N-[(S) or (R)-[6-fluoro-5-(propan-2-yl)pyridin-2-yl][3-(1,3,4-oxadiazol-2-yl)phenyl]methyl] pyrrolidine-2-carboxamide]	0.321 µM

Further lines, results first:

IC50	Compound
0.381 µM	Cc1cn(CC(=O)N2C[C@H](F)C[C@H]2C(=O)N[C@@H](c2ccccc2)c2ccc(C(C)C)c(F)n2)c(=O)[nH]c1=O (relative stereo) [Compound 778, (2S,4R)-4-fluoro-N-[(R*)-[6-fluoro-5-(propan-2-yl)pyridin-2-yl](phenyl)methyl]-1-[2-(5-methyl-2,4-dioxo-1,2,3,4-tetrahydropyrimidin-1-yl)acetyl]pyrrolidine-2-carboxamide]
1.13 µM	CC(C)c1cnc(C(NC(=O)[C@@H]2C[C@@H](F)CN2C(=O)Cc2cnn[nH]2)c2ccccc2)cc1C(F)F (single isomer, unassigned) [Compound 606, (2S,4R)-N-[(S) or (R)-[4-(difluoromethyl)-5-(propan-2-yl)pyridin-2-yl](phenyl)methyl]-4-fluoro-1-[2-(1H-1,2,3-triazol-5-yl)acetyl]pyrrolidine-2-carboxamide]
2.27 µM	CC(C)c1c(F)cc(C(NC(=O)[C@@H]2C[C@@H](F)CN2C(=O)Cc2cnn[nH]2)c2ccccc2)cc1F (single isomer, unassigned) [Compound 666, (2S,4R)-N-[(R) or (S)-[3,5-difluoro-4-(propan-2-yl)phenyl](phenyl)methyl]-4-fluoro-1-[2-(1H-1,2,3-triazol-5-yl)acetyl]pyrrolidine-2-carboxamide]
1.74 µM	O=C(NC(c1ccccc1)c1ccc(C2CCC2)c(F)c1)[C@@H]1C[C@@H](F)CN1C(=O)Cc1cnn[nH]1 (single isomer, unassigned) [Compound 673, (2S,4R)-N-[(R) or (S)-(4-cyclobutyl-3-fluorophenyl)(phenyl)methyl]-4-fluoro-1-[2-(1H-1,2,3-triazol-5-yl)acetyl]pyrrolidine-2-carboxamide]
0.044 µM	CC(C)c1ccc([C@@H](NC(=O)[C@@H]2C[C@@H](F)CN2C(=O)Cc2cc[nH]n2)c2ccccc2)cc1 (stereo in doubt) [Compound 225, (2RS,4R)-4-fluoro-N-[(S)-phenyl[4-(propan-2-yl)phenyl]methyl]-1-[2-(1H-pyrazol-3-yl)acetyl]pyrrolidine-2-carboxamide]
0.998 µM	CC(=O)N1CCC2(CC(C(=O)N3C[C@H](F)C[C@H]3C(=O)N[C@@H](c3ccccc3)c3ccc(C(C)C)cc3)=NO2)C1 (stereo partly drawn) [Compound 4, (2S,4R)-{7-acetyl-1-oxa-2,7-diazaspiro[4.4]non-2-ene-3-carbonyl}-4-fluoro-N-[(S)-phenyl[4-(propan-2-yl)phenyl]methyl]pyrrolidine-2-carboxamide]
0.353 µM	CO[C@H](C)[C@@H](C(=O)N1C[C@H](F)C[C@H]1C(=O)N[C@@H](c1ccccc1)c1ccc(C(C)C)cc1)N(C)C(C)=O [Compound 5, (2S,4R)-4-fluoro-1-[(2S,3R)-3-methoxy-2-(N-methylacetamido)butanoyl]-N-[(S)-phenyl[4-(propan-2-yl)phenyl]methyl]pyrrolidine-2-carboxamide]
